Experimental data from PMC12035805, “A Water-Soluble Aggregation-Induced Emission Photosensitizer with Intrinsic Antibacterial Activity as an Antiplanktonic and Antibiofilm Therapeutic Agent” (Journal of Medicinal Chemistry, 2025).

Legend:
[1] = Cytotoxicity (MTT) assay against HFF-1 cells; format: cell-based; conditions: human, no irradiation, read-out: 50% cytotoxicity concentration (CC50) against HFF-1 cells
Protocol: The cytotoxicity of TPA-1, TPA-0, and TPA-NC-1 against HFF-1 cells was evaluated using the 3-(4,5-dimethylthiazol-2-yl)-2,5-diphenyltetrazolium bromide (MTT) assay kit from ThermoFisher Scientific. In general, HFF-1 cells (MEM, 10% FBS, and 1% penicillin-streptomycin) were seeded in a 96-well plate with a density of 3000 cells/well overnight at 37 °C with 5% CO2. Then, the cells were treated with different concentrations of compounds for 24 h. MTT (10 μL, 5 mg/mL) was added to the medium, and the cells were further incubated for 3 h. The medium was then replaced by DMSO (100 μL). After gently shaking the plate for 30 s, the optical density of the solutions at 570 nm was measured by a BMG Labtech CLARIOstar microplate reader. The cell viability was calculated as (ODcompound – ODDMSO)/(ODmedium - ODDMSO) × 100% where ODcompound, ODmedium, and ODDMSO are the optical densities of the treated cell, nontreated cells, and DMSO at 570 nm, respectively. The experiment was conducted in triplicate. The CC50 values were calculated using GraphPad Prism 8.

[2] = Log P, 1-octanol/water partition; format: physicochemical; conditions: 1-octanol/water (1:1)
Protocol: The log P values of TPA compounds were obtained according to previously reported methods.[66] 1-octanol was first presaturated with water. Equal volume and concentration of TPA-NC-1, TPA-0, and TPA-1 were added to a 1-octanol/water (1:1) mixture and vortexed for 1 min. The mixture was then centrifuged for 5 min at 13,500 rpm. After that, the absorptions of the compound in the 1-octanol and water phases were measured. The concentrations of the compound in both phases were calculated by using the absorption calibration curve of the corresponding compound. Log P = log (concentration of the compound in 1-octanol/concentration of the compound in water).

S. aureus mature biofilm = S. aureus mature biofilm eradication assay in the dark; format: cell-based, Staphylococcus aureus; conditions: 24 h
Protocol: For biofilm eradication assay, overnight culture of S. aureus in TSB under darkness was diluted to 1 × 10^5 CFU/mL in TSB (with 1% glucose). 100 μL of the diluted culture was transferred to each well of a 96-well plate. The plate was kept at 37 °C for 24 h under darkness to form mature biofilms. The medium was removed, and the biofilms were washed with 200 μL of PBS (3 times). 100 μL of the premixed TPA-1 solutions in TSB (with 1% glucose) were added to the wells. The plate was further incubated for 24 h under darkness and subjected to the crystal violet assay as stated in the biofilm inhibition assay. The biofilm survival rate (%) was calculated as (ODTPA-1 – ODblank)/(ODmedium – ODblank) × 100% where ODTPA-1, ODmedium, and ODblank were the absorbances of the wells with bacteria treated TPA-1, with bacteria without treatment and with medium only, respectively. The experiment was performed in triplicate.

S. aureus DNA gyrase = molecular target: T1, S. aureus DNA gyrase (Staphylococcus aureus, UniProt P0A0K8+P20831); assay: S. aureus DNA gyrase supercoiling inhibition assay; format: biochemical; conditions: relaxed pBR322, 37 °C, 30 min, agarose gel
T1 construct: purchased Inspiralis
Protocol: The assay was conducted using an S. aureus gyrase supercoiling assay kit from Inspiralis. In general, relaxed bacterial plasmid (pBR322), S. aureus gyrase, and different concentrations of TPA-1 were mixed and incubated at 37 °C for 30 min. The mixtures were then quenched and subjected to electrophoresis (1% agarose gel, 75 V, 2 h). The gel image was captured with the Bio-Rad ChemiDoc imaging system.

S. aureus biofilm = assay: Photodynamic eradication of biofilm bacteria; format: cell-based, Staphylococcus aureus; conditions: light irradiation at 600 nm for 45 min
Protocol: (§1) For biofilm bacteria, overnight culture of S. aureus or P. aeruginosa was diluted to 1 × 10^5 CFU/mL in TSB (with 1% glucose). Portion of 100 μL of the diluted bacteria culture was added to the wells of a 96-well plate. The plate was incubated under darkness for 24 h at 37 °C. Then, the planktonic bacterial suspensions were removed from the wells. The biofilms were washed with PBS (3 times) to remove any remaining planktonic bacteria. Different concentrations of TPA-1 were dissolved in PBS. TPA-1 solution was added to the biofilms (120 μL for S.aureus, 150 μL for P.aeruginosa). After 20 min of incubation under darkness at 30 °C, the biofilms were kept in the dark or irradiated by 600 nm light (60 mW/cm^2) for 15, 30, and 45 min. After that, the TPA-1 solution was replaced by 120 μL of PBS. The biofilm was then suspended in PBS by scratching, followed by sonication (5 min, ≤42 kHz) and vortex (5 min, 950 rpm). The number of viable bacteria was determined by the plate counting method. All experiments were carried out in triplicate.

P. aeruginosa biofilm = assay: Photodynamic eradication of biofilm bacteria; format: cell-based, Pseudomonas aeruginosa; conditions: light irradiation at 600 nm for 45 min
Protocol: as §1

MRSA (ATCC 43300) = assay: Wound infection mouse model, MRSA biofilm; format: in vivo; conditions: mice, topical 90 μM, 600 nm 15 min, every 24 h for 4 days (TPA-1 + L)
Protocol: All in vivo experiments were approved by the Department of Science and Technology of Zhejiang Province (SYXK(Zhejiang)2021-0043). Female BALB/c mice (10–12 weeks old) were kept in 12 h light and 12 h dark cycle with access to free food and water for 7 days before and throughout the experiment. The backs of the mice were shaved and disinfected with iodine. A full-thickness circular wound (7 mm in diameter) was then created at the back of the mice. The mice were allowed to recover for 24 h after surgery to prevent sepsis.[65] Ten μL of 1× 10^8 CFU/mL MRSA (ATCC 43300) or P. aeruginosa (ATCC 27853) in saline was added to the wound. The wound was covered with an adhesive dressing for 24 h of infection. Next, the mice were randomly divided into four groups: (1) 50 μL TPA-1 (90 μM) with 600 nm light irradiation (60 mW/cm^2) for 15 min, (2) 50 μL TPA-1 (90 μM) in dark, (3) 50 μL saline with 600 nm light irradiation (60 mW/cm^2) for 15 min, and (4) 50 μL saline in dark. For light irradiation groups, TPA-1 and saline were incubated on the wound for 10 min before irradiation. The treatment was sustained for 4 days. The wound size and body weight of the mice were recorded every day. On day 6, the mice were euthanatized, and the wound tissue was collected. […] The other half of the tissue was homogenized, and the number of viable bacteria was measured by the plate counting method.

T1 sequence (P20831 whole entry): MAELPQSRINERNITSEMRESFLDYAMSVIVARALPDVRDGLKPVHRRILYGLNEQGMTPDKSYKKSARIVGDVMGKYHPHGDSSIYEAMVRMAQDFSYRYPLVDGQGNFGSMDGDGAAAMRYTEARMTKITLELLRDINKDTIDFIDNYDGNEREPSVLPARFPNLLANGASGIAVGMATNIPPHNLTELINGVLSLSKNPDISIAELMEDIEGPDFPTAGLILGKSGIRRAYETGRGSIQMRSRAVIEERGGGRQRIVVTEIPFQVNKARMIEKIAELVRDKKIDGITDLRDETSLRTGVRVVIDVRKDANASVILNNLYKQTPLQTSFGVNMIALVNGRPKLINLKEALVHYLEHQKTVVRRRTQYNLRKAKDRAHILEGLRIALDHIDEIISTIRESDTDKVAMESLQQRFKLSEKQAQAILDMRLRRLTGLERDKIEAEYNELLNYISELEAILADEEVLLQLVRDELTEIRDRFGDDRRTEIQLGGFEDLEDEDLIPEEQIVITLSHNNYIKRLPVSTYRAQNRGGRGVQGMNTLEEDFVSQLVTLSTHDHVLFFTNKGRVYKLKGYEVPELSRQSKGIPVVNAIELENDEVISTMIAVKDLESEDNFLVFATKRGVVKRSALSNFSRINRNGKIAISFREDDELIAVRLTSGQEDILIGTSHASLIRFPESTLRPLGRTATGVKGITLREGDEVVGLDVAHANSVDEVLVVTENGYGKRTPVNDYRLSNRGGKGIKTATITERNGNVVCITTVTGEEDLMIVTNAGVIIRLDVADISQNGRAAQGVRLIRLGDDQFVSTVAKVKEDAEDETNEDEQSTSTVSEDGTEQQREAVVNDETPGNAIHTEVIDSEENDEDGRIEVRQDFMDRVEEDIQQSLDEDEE
T1 sequence (P0A0K8 whole entry): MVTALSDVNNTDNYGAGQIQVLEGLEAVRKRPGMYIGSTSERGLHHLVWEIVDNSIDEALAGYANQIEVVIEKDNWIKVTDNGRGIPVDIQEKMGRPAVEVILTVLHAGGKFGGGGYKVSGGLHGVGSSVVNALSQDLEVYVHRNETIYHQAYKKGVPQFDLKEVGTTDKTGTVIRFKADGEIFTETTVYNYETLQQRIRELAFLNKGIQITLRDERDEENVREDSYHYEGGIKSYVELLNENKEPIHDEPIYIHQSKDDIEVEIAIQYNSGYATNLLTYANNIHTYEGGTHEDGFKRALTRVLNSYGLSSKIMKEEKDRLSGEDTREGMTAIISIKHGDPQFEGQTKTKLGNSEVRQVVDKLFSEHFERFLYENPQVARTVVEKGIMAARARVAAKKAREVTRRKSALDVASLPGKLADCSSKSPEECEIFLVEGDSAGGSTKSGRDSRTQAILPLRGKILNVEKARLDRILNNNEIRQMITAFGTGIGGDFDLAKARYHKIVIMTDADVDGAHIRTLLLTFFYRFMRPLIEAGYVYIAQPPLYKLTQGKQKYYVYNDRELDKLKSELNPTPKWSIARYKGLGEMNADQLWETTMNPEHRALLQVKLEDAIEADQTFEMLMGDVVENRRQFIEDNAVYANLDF

C#CCC[n+]1c(/C=C/c2ccc(-c3ccc(N(c4ccc(OCCC[N+](C)(C)C)cc4)c4ccc(OCCC[N+](C)(C)C)cc4)cc3)s2)sc2ccccc21.[Br-].[Br-].[Br-] [TPA-1]
CC50 at 24 h [1]: 260 ± 40 µM | logP [2]: -1.6 | eradication of mature S. aureus biofilms without light (S. aureus mature biofilm): only limited ability to eradicate mature biofilms | concentration at which the supercoiled DNA band completely disappears (S. aureus DNA gyrase): 25 µM | S. aureus biofilm log CFU/mL reduction (S. aureus biofilm): 1.18 ± 0.05 log CFU/mL | S. aureus in the biofilm eradicated (S. aureus biofilm): 92% ± 3% | P. aeruginosa biofilm log CFU/mL reduction (P. aeruginosa biofilm): 2.6 ± 0.2 log CFU/mL | P. aeruginosa in the biofilm eradicated (P. aeruginosa biofilm): 99.8% ± 0.1% | MRSA eradicated in infected tissues (MRSA (ATCC 43300)): 96% ± 3% | MRSA log (CFU/mg tissue) reduction (MRSA (ATCC 43300)): 1.4 ± 0.6 log (CFU/mg tissue)
